Data taken from US7271278B2, “Application of chromium-amino acid complexes in the treatment of diabetes and other diseases” (The University of Wyoming, priority 2005, dated 2007).

Experiments:
[1] = Body and organ weight of ob/ob(+/+) mice after 6-week treatment; format: in vivo, mouse
Source text: (§1) All animal treatment procedures described in this example were approved by the animal Care and Use Committee at University of Wyoming (Laramie, Wyo.). Homozygous B6.V-lep ob>/J male mice purchased from the Jackson Laboratory (Bar Harbor, Me.) at age 5 weeks were divided randomly into two weight-matched groups, marked as ob/ob(+/+) control and ob/ob(+/+) treatment (n=10). Number, age and weight matched normal C57 mice were used as lean control. All of these animals were maintained on conventional laboratory diet under well-controlled conditions of temperature (22±2° C.), humidity (55±5%) and 12 hour/12 hour light-dark cycle and had ad libitum access to water and standard rodent chow. Rodent diet and tap water were consumed by mice ad libitum. Cr(pa)3 was provided in the drinking water and, on the basis of water intake, was administered to provide an intake of about 150 μg/kg/day corresponding to about 10-15 μg elemental Cr/kg/day for ob/ob(+/+) and lean treatment groups. The dosage of chromium used was based on earlier animal studies reported with chromium picolinate (Cefalu et al. (2002) J. Nutr., 132:1107-1114).
All animal treatment procedures described in this study were approved by the Animal Care and Use Committee at University of Wyoming (Laramie, Wyo.). […] Weights of body and other organs were measured with a standard laboratory scale.

[2] = tested on: ob/ob(+/+) mice; assay: Insulin-challenge test in ob/ob(+/+) and lean mice; format: in vivo, mouse; settings: vs vehicle-treated group
Source text: All animal treatment procedures described in this study were approved by the Animal Care and Use Committee at University of Wyoming (Laramie, Wyo.). Homozygous B6.Vlep/J male mice purchased from the Jackson Laboratory (Bar Harbor, Me.) at age 5 weeks were divided randomly into two weight-matched groups, marked as ob/ob(+/+) control and ob/ob(+/+) treatment (n=12). Number and age-matched normal C57 mice were used as lean control. All animals were maintained on conventional laboratory diet under well-controlled conditions of temperature (22±2° C.), humidity (55±5%) and 12 hours/12 hours light-dark cycle and had ad libitum access to water and standard rodent chow. Cr(D-Phe)3 was provided in the drinking water and, on the basis of water intake, was administered to provide an intake of about 150 μg/kg/day corresponding to about 10-15 μg elemental Cr/kg/day) for ob/ob(+/+) and lean treatment groups. […] The livers of these mice were frozen in liquid nitrogen immediately and stored at −80° C. until use. […] Weights of body and other organs were measured with a standard laboratory scale.
At the end of the treatment schedule, mice were given intraperitoneal injections of insulin (1 U/kg body weight). Blood glucose levels were determined by the tail-clip method at different time points as described hereinabove.

[3] = tested on: ob/ob(+/+) mice; assay: Intraperitoneal glucose tolerance test (IPGTT) in ob/ob(+/+) and lean mice; format: in vivo, mouse
Source text: as §1
At the end of the treatment schedule, mice were subjected to the intraperitoneal glucose tolerance test (IPGTT) as described previously (Hintz et al. (2003) Int. J. Obes. Relat. Metab. Disord., 27:1196-1203). Briefly, the mice were fasted for 12 hours and then given intraperitoneal injection of glucose (2 g/kg body weight). Glucose levels were determined in blood drops obtained by clipping the tail of the mice immediately before glucose challenge, as well as at 15, 60 and 120 minutes thereafter. Serum glucose levels were determined using ACCU-CHEK® Advantage® Glucose Analyzer (Roche Diagnostics Corporation, Ind.). Results of IPGTT are also expressed as integrated areas under the curves (AUC) over 120 minutes for glucose calculated by using the WinNonlin software (Pharsight Corporation, Mountain View, Calif.).

[4] = tested on: ob/ob(+/+) mice; assay: Lipid-peroxidation (malondialdehyde) and protein carbonyl in liver homogenate of treated mice; format: in vivo, mouse; settings: obese mice, 150 μg/kg/day 6 weeks, vs untreated obese
Source text: All animal treatment procedures described in this study were approved by the Animal Care and Use Committee at University of Wyoming (Laramie, Wyo.). Homozygous B6.Vlep/J male mice purchased from the Jackson Laboratory (Bar Harbor, Me.) at age 5 weeks were divided randomly into two weight-matched groups, marked as ob/ob(+/+) control and ob/ob(+/+) treatment (n=12). Number and age-matched normal C57 mice were used as lean control. All animals were maintained on conventional laboratory diet under well-controlled conditions of temperature (22±2° C.), humidity (55±5%) and 12 hours/12 hours light-dark cycle and had ad libitum access to water and standard rodent chow. […] Weights of body and other organs were measured with a standard laboratory scale.
The end product of lipid-peroxidation, namely malondialdehyde (MDA), was estimated in the liver tissue homogenates by the colorimetric kit (Bioxytech LPO-586, Portland, Oreg.) using 1,1,3,3-tetra-ethoxypropane as a standard according to the manufacturer's specifications. This assay is based on the reaction of a chromogenic reagent N-methyl-2-phenylindole with MDA at 45° C. which yields a stable chromophore with absorbance maxima at 586 nm. […]

[5] = tested on: pUC19 DNA; assay: Ascorbate-stimulated cleavage of pUC19 DNA; settings: 1.2 μM, ascorbic acid, pUC19 DNA 38 μM
Procedure: DNA cleavage-stimulated by chromium compounds was assessed as described previously (Speetjens et al. (1999) Chem. Res. Toxicol., 12:483-487). All solutions were prepared using Chelex-100 treated water to remove any traces of metal ions. […] Reactions were allowed to proceed 60 minutes at room temperature followed by quenching with 2 μl of nucleic acid sample loading buffer. The mixtures were loaded directly onto a 1% agarose gel pre-stained by ethidium bromide and electrophoresed at 60 V. The gels were photographed on a UV transilluminator.

[6] = tested on: 3T3-adipocytes; assay: 2-deoxy-D-[3H] glucose uptake in 3T3-L1 adipocytes; format: cell-based, mouse
Procedure: The 3T3-L1-pre-adipocytes were obtained from the American Type Culture Collection and were propagated at 37° C. in DMEM with 10% newborn calf serum plus 50 U/ml penicillin and 50 μg/ml streptomycin in an incubator under a humidified atmosphere of 5% CO2/95% air. Induction of differentiation was done one day post-confluence. Cells were maintained in differentiation medium of the following composition: DMEM, 10% FBS, […] dexamethasone, 0.5 mM 1-isobutyl-3-methylxanthine (IBMX) and ITS for three days. At day 3, the dexamethasone and IBMX were removed with ITS remaining on the cells for an additional two days. Differentiation was allowed to continue in DMEM supplemented with 10% FBS, ITS and the adipocytes were used between day 9 and 14 post-induction. Prior to the cellular assays, cells were serum starved by overnight incubation in DMEM (containing 0.2% serum).
Glucose uptake activity was analyzed by measuring the uptake of 2-deoxy-D-[^3H] glucose as described previously (Sakoda et al. (1999) Diabetes, 48:1365-1371). Briefly, confluent 3T3-L1 adipocytes grown in 6-well plates were washed twice with serum-free DMEM and incubated with 2 ml of the same medium at 37° C. for 2 hours. The cells were washed 3 times with Krebs-Ringer-HEPES (KRH) buffer and incubated with 2 ml KRH buffer at 37° C. for 30 minutes. Insulin (6 nM) and/or Cr(pa)3 (0-25 μM) were then added to adipocytes accompanying the procedure of differentiation. Glucose uptake was initiated by the addition of 0.1 ml KRH buffer and 2-deoxy-D-[^3H] glucose (0.2 μCi/ml) and 5 mM glucose as final concentrations. Glucose uptake was terminated by washing the cells three times with cold PBS. The cells were lysed overnight with 1 ml 0.5M NaOH and 0.1% SDS (w/v). The radioactivity retained by the cell lysates was determined by a scintillation counter (Beckmann LC 6000IC) and normalized to protein amount measured with a Micro BCA Protein Assay Kit (Pierce Chemical, Rockford, Ill.).

[7] = In vitro lipid-peroxidation of rat brain homogenate stimulated by hydrogen peroxide and ascorbate; format: biochemical; settings: rat-brain homogenate 10% w/v, hydrogen peroxide 1 mM, ascorbate 1 mM, 30 min; concentration-dependent
Procedure: The end product of lipid-peroxidation, namely malondialdehyde (MDA), was estimated in the liver tissue homogenates by the colorimetric kit (Bioxytech LPO-586, Portland, Oreg.) using 1,1,3,3-tetra-ethoxypropane as a standard according to the manufacturer's specifications. This assay is based on the reaction of a chromogenic reagent N-methyl-2-phenylindole with MDA at 45° C. which yields a stable chromophore with absorbance maxima at 586 nm. Ability of Cr(D-Phe)3 to inhibit in vitro lipid-peroxidation was assessed in rat-brain homogenates (10% w/v) by incubating Cr(D-Phe)3 in the presence of hydrogen peroxide (1 mM) and ascorbic acid (1 mM) for 30 min at 37° C. followed by measuring MDA as described previously (Sreejayan et al. (1994) J. Pharm. Pharmacol., 46:1013-1016).

[8] = Deoxyribose degradation assay for generation of hydroxyl radicals; settings: 1.2 μM
Procedure: The potential of chromium compounds to generate hydroxyl radicals in vitro was assessed by the method reported previously (Halliwell et al. (1987) Anal. Biochem., 165:215-219). Briefly, a reaction mixture containing either chromium picolinate or Cr(pa)3, 2-deoxyribose (4 mM), ascorbic acid (100 μM) and hydrogen peroxide (100 μM) in potassium phosphate buffer (pH 7.4, 10 mM) was incubated at 37° C. for 30 minutes. An aliquot of the mixture was treated with 1% (w/v) thiobarbituric acid and 2.8% (w/v) trichloroacetic acid and heated at 90° C. for 10 minutes, rapidly cooled and the amount of chromogen formed in the sample was measured by its absorption at 532 nm. Ferric-EDTA (100 μM) was used as a positive control.

Structure (SMILES): N[C@H](Cc1ccccc1)C(=O)O.[Cr+3] [Cr(pa)3, chromium (III) D-phenylalanine]
- difference in body weight ([1]; ob/ob(+/+) mice treated vs untreated): no significant difference
- body-mass indices (body, heart, liver, kidney weights) ([1]; obese mice, 150 μg/kg/day six weeks): did not alter
- blood glucose level after insulin-challenge, lean mice [2]: failed to further lower the blood glucose level
- AUC of glucose, lean mice ([3]; lean mice, treated vs untreated): no significant changes
- serum glucose levels post-glucose-challenge ([3]; ob/ob(+/+) mice, 150 μg/kg/d 6 weeks, 15 and 60 minutes, vs untreated): significantly lower
- integrated AUC over 120 minutes of glucose ([3]; ob/ob(+/+) mice, 150 μg/kg/d 6 weeks, vs untreated): significantly lower
- malondialdehyde (lipid-peroxidation) in liver homogenate [4]: significantly lower
- protein carbonyl formation in liver homogenate [4]: significantly lower
- DNA strand breaks (supercoiled to circular nicked pUC19) [5]: failed to induce any strand breaks
- insulin-stimulated glucose uptake ([6]; Cr(pa)3 5 and 25 μM, insulin 6 nM, vs insulin-stimulated untreated cells): significantly augmented
- basal glucose uptake ([6]; absence of insulin): did not have any effect
- in vitro lipid-peroxidation (malondialdehyde equivalents) [7]: inhibited
- degradation of deoxyribose [8]: failed to cause any degradation of deoxyribose
